Target: T1, Human farnesyl pyrophosphate synthase (FPPS, Swissprot ID: P14324) (Homo sapiens, UniProt P14324)
T1 construct: made in house
T1 sequence (P14324 67-419 limits assumed): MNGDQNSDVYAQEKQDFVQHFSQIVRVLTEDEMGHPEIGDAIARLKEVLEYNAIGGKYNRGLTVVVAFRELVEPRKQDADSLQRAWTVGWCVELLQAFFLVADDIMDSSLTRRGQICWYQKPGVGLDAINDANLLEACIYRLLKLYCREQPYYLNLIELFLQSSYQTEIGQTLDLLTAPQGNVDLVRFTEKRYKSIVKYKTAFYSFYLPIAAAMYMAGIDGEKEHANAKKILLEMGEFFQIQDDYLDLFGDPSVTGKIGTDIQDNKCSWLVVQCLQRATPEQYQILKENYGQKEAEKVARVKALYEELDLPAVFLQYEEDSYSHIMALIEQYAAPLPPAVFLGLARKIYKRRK
Assay: label-free LC/MS/MS assay for farnesyl pyrophosphate synthase (FPPS), cell-free in vitro
Assay type: biochemical
Conditions: 5 min pre-incubation, GPP/IPP substrates, FPP quantified by LC/MS/MS
Description: For example, in a cell-free in vitro assay the superiority of compounds of the formula I over compounds already known can be shown. Briefly, the reaction proceeds in the presence of enzyme and an inhibitor of the formula I, and the reaction product (farneysyl pyrophosphate) is quantified by LC/MS/MS.
In detail, the inhibitor and enzyme are pre-incubated before adding the substrates
The assay is a label-free assay for farnesyl pyrophosphate synthase (FPPS) based on LC/MS/MS. This method quantifies in-vitro untagged farnesyl pyrophosphate (FPP) and is suitable for high throughput screening (HTS) to find inhibitors of FPPS and for the determinations of IC50 values of candidate compounds. The analysis time is 2.0 minutes with a total cycle time of 2.5 minutes. The analysis can be formatted for 384-well plates resulting in an analysis time of 16 hours per plate.
Pentanol, methanol, and isopropyl alcohol are HPLC grade and obtained from Fisher Scientific. DMIPA is from Sigma-Aldrich. Water is from an in-house Milli-Q system. […]
The Multiple Reaction Monitoring (MRM) transitions monitored are 381−>79− for FPP and 397−>159− for FSPP at a collision energy of 22 eV and a collision cell pressure of 2.1×10^−3 mbar of Ar. […]
The total cycle time per sample is 2.5 minutes. Since the analysis is formatted for 384-well plates, a plate is analyzed in 16 hours. […]

Compound: CCc1cncn1CC(O)(P(=O)(O)O)P(=O)(O)O [Reference-Example 2, [2-(5-Ethyl-imidazol-1-yl)-1-hydroxy-1-phosphono-ethyl]-phosphonic acid]
- IC50: 2.4 to 3.1 nM

From patent US20110034418A1, “PHARMACEUTICAL COMPOSITION WITH BISPHOSPHONATE” (priority 2008, published 2011)
